The target in experiment [1] is T1, 3HA-tagged F508del-CFTR in BHK cells (Homo sapiens, UniProt P13569, DEL508-508).
T1 construct: expressed in transfected cells; host or cells: baby hamster kidney (BHK) cells (Carlile et al. 2007)
The experiment can be described thus: CFTR trafficking assay (surface expression). It counts as cell-based, hamster. The note with it: for F508del-CFTR surface expression signal (Fig5a): individual replicates; for F508del-CFTR trafficking towards the plasma membrane: BHK cells, 24 h, 10 μM compound. The procedure:
(§1) Twelve (12) validated hit compounds from the initial screening and focused validation library were tested for their effect on F508del-CFTR trafficking. Baby hamster kidney (BHK) cells expressing 3HA-tagged F508del-CFTR were treated for 24 h with 10 μM compound. After fixation of the cells, a combination of mouse monoclonal anti-HA antibody and anti-mouse IgG conjugated with FITC was used to detect F508del-CFTR that had trafficked to the plasma membrane as described previously. […] Additionally, a fluorescence imaging plate reader (FLIPR) Membrane Potential (FMP) assay was performed. This assay measures real-time membrane potential changes associated with ion channel activation and ion transporter proteins. F508del-CFTR expressing BHK cells were incubated for 24 h with 20 μM compound before treatment with the potentiator genistein, FMP dye, and activator forskolin. The fluorescence intensity is thus a measure for the function of the CFTR protein in the plasma membrane of these cells. The F508del-CFTR corrector VX-809 (lumacaftor) and the triple combination Trikafta® were used as positive controls in this assay. […] Another cellular assay was performed with the Ussing Chamber, which detects and quantifies transport of ions across epithelial tissue. F508del-CFTR expressing cystic fibrosis epithelial (CFBE) cells were treated for 18 h with 20 μM CY007424. After forskolin and genistein stimulation, the short-circuit current of the cells was measured.
(§2) Fig. 5 Cellular activity of macrocycles stabilizing the 14-3-3/CFTR PPI. a Surface expression of 3HA-tagged F508del-CFTR in BHK cells incubated for 24 h with 10 μM compound and treated with mouse monoclonal anti-HA antibody and anti-mouse IgG conjugated with FITC (n = 4 or n = 3 biological replicates, bars represent the mean). b, c FLIPR Membrane Potential (FMP) assay of F508del-CFTR expressing BHK cells treated for 24 h with the macrocycles (b, n = 6 biological replicates, bars represent the mean) or with CY007424 and/or VX-809 or Trikafta®, with and without CFTR inhibitor INH172 (c, n = 4 biological replicates, bars represent the mean). d Using chamber experiment of F508del-CFTR expressing CFBE cells treated for 18 h with CY007424, VX-809, or Trikafta® or in combinations. CFTR activity is assayed by measurement of short-circuit current of cells after stimulation by forskolin and the potentiator genistein (n = 3 or n = 6 biological replicates, bars represent the mean). Source data are provided as a Source Data file.
The trafficking assay was performed as previously described by Carlile et al.[21]. In brief, 3HA-tagged F508del-CFTR expressing baby hamster kidney (BHK) cells (cells earlier described by Carlile et. al. 2007)[21] were seeded in 96-well plates (Corning half area, black-sided, clear bottom) at 15,000 cells per well. After 24 h incubation at 37 °C, the cells were treated with 10 μM of compound for 24 h (final DMSO concentration 1% v/v). The cells were fixated with 4% paraformaldehyde, washed with PBS, and then blocked with fetal bovine serum (5% in PBS). Mouse monoclonal anti-HA antibody (H9658 Sigma, 1:150 dilution in PBS) was incubated overnight, and, after three washes with PBS, the background fluorescence was measured in a plate reader (488 nm excitation, 510 nm emission). The secondary antibody anti-mouse IgG conjugated with FITC (F5262 Sigma, 1:100 dilution in PBS) was incubated for 1 h, the cells were washed three times with PBS and analyzed in the plate reader again. Background fluorescence was subtracted from the signal, after which the signal was normalized to the DMSO control and wt-CFTR expressing cells.

The target of experiment [2] is T2, F508del-CFTR in BHK cells (Homo sapiens, UniProt P13569, DEL508-508).
T2 construct: expressed in transfected cells; host or cells: baby hamster kidney (BHK) cells
T2 sequence (P13569 with tags, fused parts or gaps DEL508-508): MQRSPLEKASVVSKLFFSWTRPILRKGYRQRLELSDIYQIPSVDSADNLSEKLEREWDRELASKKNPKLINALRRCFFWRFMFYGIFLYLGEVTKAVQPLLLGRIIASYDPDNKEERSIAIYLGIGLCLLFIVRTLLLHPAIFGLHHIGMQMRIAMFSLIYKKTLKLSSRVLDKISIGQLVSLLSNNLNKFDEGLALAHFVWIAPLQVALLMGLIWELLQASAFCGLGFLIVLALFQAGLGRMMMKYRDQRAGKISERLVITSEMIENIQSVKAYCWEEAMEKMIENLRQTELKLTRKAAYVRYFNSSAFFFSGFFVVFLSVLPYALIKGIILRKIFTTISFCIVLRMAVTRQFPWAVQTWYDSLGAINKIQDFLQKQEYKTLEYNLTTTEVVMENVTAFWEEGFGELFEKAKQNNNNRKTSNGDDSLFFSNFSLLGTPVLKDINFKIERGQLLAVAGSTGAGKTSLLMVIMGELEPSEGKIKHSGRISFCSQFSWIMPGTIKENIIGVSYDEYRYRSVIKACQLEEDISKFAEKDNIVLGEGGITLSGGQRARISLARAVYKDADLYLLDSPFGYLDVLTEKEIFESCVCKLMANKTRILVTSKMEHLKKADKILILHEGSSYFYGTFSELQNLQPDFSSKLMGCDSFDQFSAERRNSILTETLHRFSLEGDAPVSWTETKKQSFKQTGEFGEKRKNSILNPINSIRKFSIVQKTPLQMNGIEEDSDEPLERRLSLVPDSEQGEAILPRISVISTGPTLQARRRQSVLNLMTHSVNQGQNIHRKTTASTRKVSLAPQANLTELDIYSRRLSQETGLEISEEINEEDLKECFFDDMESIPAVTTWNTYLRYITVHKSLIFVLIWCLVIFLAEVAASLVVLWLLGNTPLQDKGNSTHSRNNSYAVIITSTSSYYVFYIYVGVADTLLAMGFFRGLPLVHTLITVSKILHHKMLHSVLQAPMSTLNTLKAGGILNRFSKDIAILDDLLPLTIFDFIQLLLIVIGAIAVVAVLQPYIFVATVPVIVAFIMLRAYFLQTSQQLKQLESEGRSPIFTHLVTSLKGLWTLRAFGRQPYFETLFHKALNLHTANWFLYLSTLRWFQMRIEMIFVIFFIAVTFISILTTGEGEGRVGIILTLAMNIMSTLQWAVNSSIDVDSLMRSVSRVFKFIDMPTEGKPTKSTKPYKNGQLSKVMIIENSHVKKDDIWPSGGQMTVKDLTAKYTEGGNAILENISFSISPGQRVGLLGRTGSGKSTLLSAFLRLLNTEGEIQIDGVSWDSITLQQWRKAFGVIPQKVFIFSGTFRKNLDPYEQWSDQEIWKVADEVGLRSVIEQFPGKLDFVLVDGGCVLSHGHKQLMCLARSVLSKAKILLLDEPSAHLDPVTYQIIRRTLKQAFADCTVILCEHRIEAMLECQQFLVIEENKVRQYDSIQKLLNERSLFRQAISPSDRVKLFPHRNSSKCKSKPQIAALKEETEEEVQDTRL
The experiment can be described thus: FLIPR membrane potential (FMP) assay. It counts as cell-based, hamster. The conditions noted are these: for FMP assay signal (Fig5b) / FMP assay signal (Fig5c): individual replicates; for CFTR function (FMP assay): BHK cells, 24 h, 20 μM compound, genistein, forskolin. The protocol:
as §1, §2
The FLuorescence Imaging Plate Reader (FLIPR) Membrane Potential (FMP) assay is based on the technique developed by Van Goor et al.[30] F508del-CFTR expressing baby hamster kidney (BHK) cells were incubated with the compounds for 24 h at 37 °C. The growth medium was removed from the cells by inverting the plate and FMP dye (Molecular Devices, Part #R8042) including the potentiator genistein (Sigma, G6649) was added back in 70 μl of low Cl^- containing buffer (160 mM NaGluconate, 4.5 mM KCl, 2 mM CaCl2, 1 mM MgCl2, 10 mM D-Glucose, 10 mM HEPES (pH7.4)). The plates were incubated for 5 min at RT before activation of CFTR in the plate reader (SynergyMX) with the addition of 14 µL of FMP dye in low Cl^- buffer containing 6x forskolin (Sigma, F6886) following a 2 min baseline read. Fluorescence intensity was monitored for 5 min following CFTR activation. Reported is the rate of fluorescence intensity change over time.

“And” between values parts separate entries of the source, which are not always exact repeats. Equal entries are not always repeated.

T1 sequence (P13569 with tags, fused parts or gaps DEL508-508): as above

As to `N=C(N)NCCCC1NC(=O)C(CCCCN)NCc2ccccc2Sc2ccccc2CNC(=O)C(Cc2ccc(O)cc2)NC1=O` (centres unmarked) [CY001951], in experiment [1], the “F508del-CFTR surface expression signal (Fig5a)” value was 85.2534 and 218.237 and 180.048 and 282.523. Besides, the “FMP assay signal (Fig5b)” value in experiment [2] is 112.821 and 82.214 and 93.607 and 85.25 and 102.571 and 92.764.
On to `NCCCCC1NCc2ccccc2Sc2ccccc2CNC(=O)C(Cc2cccc(Cl)c2)NC(=O)C(Cc2ccc(O)cc2)NC1=O` (centres unmarked) [CY007288], for which the “F508del-CFTR surface expression signal (Fig5a)” value in experiment [1] is 916.74 and 800.091 and 871.094 and 781.005. In addition, in experiment [2], the “FMP assay signal (Fig5b)” value was 56.536 and 49 and 51.321 and 53.964 and 53 and 52.964.
As to `NCCCC1NCc2ccccc2Sc2ccccc2CNC(=O)C(Cc2c[nH]c3ccccc23)NC(=O)C(Cc2ccccc2)NC1=O` (centres unmarked) [CY007345], the “F508del-CFTR surface expression signal (Fig5a)” value in experiment [1] was -42.2555 and -20.6074 and 61.7766 and 72.7311. The “FMP assay signal (Fig5b)” value in experiment [2] is 99.75 and 93 and 100.071 and 96.107 and 84.214 and 89.179.
With `N=C(N)NCCCC1NCc2ccccc2Sc2ccccc2CNC(=O)C(Cc2ccc(O)cc2)NC(=O)C(CCCN)NC1=O` (centres unmarked) [CY007424], in experiment [1], the “F508del-CFTR trafficking towards the plasma membrane” value is “strongest increase”; the “F508del-CFTR surface expression signal (Fig5a)” value was 1698.78 and 1774.35 and 1725.92 and 1889.17. For the same compound, in experiment [2], the “CFTR function (FMP assay)” value is “clear corrector function”; the “FMP assay signal (Fig5b)” value was 405.536 and 378.214 and 384.321 and 349.393 and 433.679 and 385.071. For the same compound, the “FMP assay signal (Fig5c)” value in experiment [2] (Compound alone) was 416.179 and 423.464 and 390.429 and 379.429. The “FMP assay signal (Fig5c)” value in experiment [2] (With CFTR-inh172) was 23.036 and 3.107 and 4.393 and -13.071.
Turning to `N=C(N)NCCCC1NC(=O)C(CCC(N)=O)NC(=O)C(CCCNC(=N)N)NC(=O)C2CCCN2Cc2cccc(c2)-c2ccccc2CNC1=O` (centres unmarked) [CY007455], in experiment [1], the “F508del-CFTR surface expression signal (Fig5a)” value was 15.0857 and 101.743 and 158.532 and 44.3829. Moreover, in experiment [2], the “FMP assay signal (Fig5b)” value is 35.786 and 28.786 and 56.25 and 44.357 and 64.929 and 56.893.
On to `N=C(N)NCCCC1NC(=O)C(CCC(N)=O)NC(=O)C(CCCNC(=N)N)NC(=O)C2CCCN2Cc2cccc(c2)-c2ccccc2CNC1=O` (centres unmarked) [CY007458], for which the “F508del-CFTR surface expression signal (Fig5a)” value in experiment [1] is 354.117 and 244.376 and 379.817 and 293.603. Also, the “FMP assay signal (Fig5b)” value in experiment [2] was 121.393 and 152.286 and 131.821 and 116.107 and 106.464 and 116.643.
`CC1NC(=O)C(CCCNC(=N)N)NC(=O)C2CCCN2Cc2cccc(c2)-c2ccccc2CNC(=O)C(CCCNC(=N)N)NC1=O` (centres unmarked) [CY007476]: in experiment [1], the “F508del-CFTR trafficking towards the plasma membrane” value is recorded as “increase of F508del-CFTR trafficking towards the plasma membrane”; the “F508del-CFTR surface expression signal (Fig5a)” value was 1288.45 and 1177.16 and 1241.43 and 1259.33. In experiment [2], the “CFTR function (FMP assay)” value was “inactive”; the “FMP assay signal (Fig5b)” value is 153.964 and 148.571 and 156.714 and 190.464 and 184.357 and 154.25.
With `CN1CC(=O)NC(CCCNC(=N)N)C(=O)NC(CCC(N)=O)C(=O)NC(CCCNC(=N)N)C(=O)NCc2ccccc2-c2cccc(c2)C1` (centres unmarked) [CY007491], in experiment [1], the “F508del-CFTR trafficking towards the plasma membrane” value is “increase of F508del-CFTR trafficking towards the plasma membrane”; the “F508del-CFTR surface expression signal (Fig5a)” value was 1616.06 and 1494.72 and 1508.75 and 1545.64. In addition, in experiment [2], the “CFTR function (FMP assay)” value was “inactive”; the “FMP assay signal (Fig5b)” value was 58.5 and 35.75 and 49.393 and 59.036 and 29.929 and 21.679.
For `N=C(N)NCCCC1NC(=O)C(CCC(N)=O)NC(=O)C(CCCNC(=N)N)NC(=O)C2Cc3ccccc3CN2Cc2cccc(c2)-c2ccccc2CNC1=O` (centres unmarked) [CY007493], in experiment [1], the “F508del-CFTR surface expression signal (Fig5a)” value is 225.716 and 325.901 and 303.406 and 383.168. Further, the “FMP assay signal (Fig5b)” value in experiment [2] was 74.143 and 78.429 and 43.607 and 72 and 65.679 and 76.179.
`N=C(N)NCCCC1NC(=O)C(CCC(N)=O)NC(=O)C(CCCNC(=N)N)NC(=O)C2CCCN2Cc2ccccc2Sc2ccccc2CNC1=O` (centres unmarked) [CY007502]: the “F508del-CFTR surface expression signal (Fig5a)” value in experiment [1] is 344.243 and 408.371 and 366.875 and 405.395. The “FMP assay signal (Fig5b)” value in experiment [2] is 13.036 and 27.929 and 39.536 and 44.036 and 44.893 and 22.781.
Regarding `C=CC(C)(C)OC[C@H]1O[C@H](O[C@@H]2C3=C([C@H](C)COC(C)=O)C[C@H](O)[C@]3(C)/C=C3/[C@@H](COC)CC[C@H]3[C@@H](C)[C@H]2O)[C@H](O)[C@@H](OC(C)=O)[C@@H]1O` [FC-A, fusicoccin A, reference compound], in experiment [1], the “F508del-CFTR surface expression signal (Fig5a)” value is 1016.54 and 1064.51 and 1045.89. For the same compound, the “FMP assay signal (Fig5c)” value in experiment [2] (Compound alone) was 170.429 and 204.929 and 173.75 and 189.679; in experiment [2] (With CFTR-inh172), 23.571 and 18.107 and 23.429 and 27.536. For the same compound, in experiment [2], the “FMP assay signal (Fig5b)” value was 224.714 and 247.893 and 215.429 and 224.357 and 209.61 and 238.08.

The record behind these values is PMC9226124, “Macrocycle-stabilization of its interaction with 14-3-3 increases plasma membrane localization and activity of CFTR” (Nature Communications, 2022).
